Consider 2 compounds from patent publication EP4570271A1, “METAL-PHOSPHOLIPID COMPLEX, METAL-PHOSPHOLIPID COMPLEX PARTICLE, DRUG-LIPID PARTICLE, METHOD FOR PREPARING SAME, AND USE THEREOF” (priority 2022, dated 2024).

This experiment concerns 293T cells. Put plainly: cells. The conditions noted are these: Homo sapiens, HEK-293T. In kind it is cell-based.

One may read the IC50 as the concentration that inhibits the measured activity by half. `CCCCCCCCC(CCCCCC)C(=O)OCCCCCCN(CCCCO)CCCCCCOC(=O)C(CCCCCC)CCCCCCCC` (stereo not shown) [ALC0315]: the IC50 runs as follows: (Table 2-2, 48 hours, CCK8) 145 µM; (Table 4-3, CCK8) 145 µM.
As for `CCCCCCCC/C=C\CCCCCCCC(=O)OC[C@H](C[N+](C)(C)C)OC(=O)CCCCCCC/C=C\CCCCCCCC` [DOTAP, N-(2,3-dioleoyloxy)propyl)-N,N,N-trimethylammonium chloride], the IC50 is, setting by setting: (Table 2-2, 48 hours, CCK8) 40.7 µM; (Table 4-3, CCK8) 40.7 µM.
